From patent US6635648B2, “Combination therapy using sympathetic nervous system antagonists and endothelin antagonists” (Queen's University at Kingston, priority 2000, dated 2003)

How the values were obtained:
[1] = NO-selectivity of depressor responses before and after maximal NOS blockade with L-NAME; assay type: in vivo, rat; details: for Change in Depressor Response: after vs before 100 mg/kg L-NAME; for Δ MAP L-NAME 100 mg/kg (mmHg): depressor agent after maximal NOS blockade with 100 mg/kg L-NAME; for Δ MAP Control (mmHg): depressor agent before L-NAME
Description: (§1) Determination of MAP: Three days after surgery, MAP was recorded (PowerLab/8s DAS, ADInstruments, Milford, Mass.). […] An equilibration period of at least 1 hour was allowed prior to any experimentation to establish a steady baseline. […] Mean arterial pressure (MAP) and heart rate (HR) were calculated as an average over five minutes for steady state conditions and 10 seconds for transient drug responses.
Hypersensitivity to NO-mimetics following NOS blockade is shown to be the result of a specific interaction between ET and depressor agents that target the NO pathway. To confirm the specificity of this interaction, dose responses to a variety of depressor agents targeting both NO-dependent and NO-independent pathways were performed before and after maximal NOS blockade with 100 mg/kg L-NAME. One dose of each depressor agent that decreased MAP by approximately 10 mmHg was chosen for analysis. The agents compared were SNP ([…]; 30 s infusion), 8-bromo-cGMP (8-Br-cGMP; 3000 mg/kg/min; cumulative from 30, 100, 300, 1000, 3000 dose response, 2 min infusion, 3 min between doses), bradykinin (30 mg/kg/min; 30 s infusion), PGE1 ([…]; cumulative dose response, 20 min/dose) and INE (0.2 mg/kg/min; 30 s infusion).

[2] = Mean arterial pressure (MAP) in conscious catheterised rats after drug treatment; assay type: in vivo, rat; details: for Δ MAP (from initial baseline; mmHg): Table 3, L-NAME 3 mg/kg in the triple combination; for MAP after terazosin treatment: terazosin 2 mg/kg i.v., SB209670 treated animals (label SB209670) vs animals without SB209670 (label terazosin)
Description: Animals: Male Sprague-Dawley rats (250-300 g) from Charles River Laboratories (St. Constant, Quebec) were individually housed under conditions of 12-hour light/dark cycle at a room temperature of 22-24° C. Purina® rodent chow and tap water were provided ad libitum. Rats were housed for at least one day prior to catheter implantation and allowed a minimum of 3 days to recover from the surgery before any experiments. […] Experiments were performed in accordance with standards established by the Canadian Council of Animal Care.
Surgery: The surgical technique was based on that described by Thompson et al. (Hypertension. 20(6):809-815, 1992). In brief, rats were anaesthetized with Hypnorm®/Nersed® (1:2:1 ratio of Hypnorm®:H2O:Versed® at a dose rate of 3 ml/kg i.p.). […] An additional catheter sat loosely in the abdominal cavity for intra-peritoneal administration of drugs. All catheters were tunneled subcutaneously, exteriorized at the nape of the neck and sutured into place. The catheters were filled with heparin saline (50 IU/ml) and sealed at the exposed end.
as §1
The NOS antagonist L-NAME was administered in increasing doses (1,3,10,30 mg/kg i.v.). MAP was measured after each dose when pressure reached steady state (10 min).

[3] = compared with the placebo group; cited from earlier work
[4] = Overshoot and rate of recovery of MAP following 30 second SNP depressor challenge; assay type: in vivo, rat; details: for Overshoot (mmHg) of MAP relative to control response: following SNP (10 μg/kg/min) depressor challenge, maximal blockade, 3 mg/kg L-NAME in TRZ combinations; for Rate of Recovery (mmHg/s): following SNP (30 μg/kg/min) depressor challenge, 10 second interval after onset of recovery; for Overshoot: Change vs Control: following SNP (10 mg/kg/min) depressor challenge; for Rate of Recovery: Change vs Control: following SNP (30 mg/kg/min) depressor challenge
Description: as §1
In Examples 2, 3 and 4, we used a 30 second infusion of SNP to induce a transient depressor response (less than 1 minute) in order to assess mechanisms involved in homeostatic adjustment, in each case comparing treatment to the respective control response (FIG. 8, Table 3). […] In contrast, after α1-adrenoceptor antagonism the response to the depressor challenge was altered such that there was a marked overshoot of MAP above baseline during the recovery phase. In some instances MAP took in excess of five minutes to return to baseline following the overshoot. […] This response was unchanged by NOS antagonism (FIG. 8b) and RAS inhibition (FIG. 8c).
In addition, we characterized the rate of recovery of MAP as determined by the upward slope of the arterial blood pressure trace during a 10 second interval immediately after the onset of recovery (Table 4). […] In contrast, the combination of alpha-blockade and NOS antagonism doubled the magnitude of the recovery slope.

[5] = Vascular reactivity: depressor response to NO-mimetic sodium nitroprusside (SNP) infusion; assay type: in vivo, rat; details: for Change in Vascular Response to SNP: Table 3; for depressor response to SNP: treatment alone at maximal blockade (L-NAME 30 mg/kg), SNP 1-30 μg/kg/min i.v.; for depressor response to SNP in the presence of L-NAME: treatment combined with L-NAME 3 and 30 mg/kg
Description: as §1
(§2) Data Analysis: Dose responses to N^ω-nitro-L-arginine-methyl ester (L-NAME, Sigma, Mo.) in terazosin- or prazosin-treated animals vs control were compared using unpaired, two-tailed t-test for each dose. […] In all cases a p value less than 0.05 was considered to be statistically significant.
This set of experiments examined whether alpha-adrenoceptor antagonism and/or complete removal of α-signaling could also alter vascular reactivity to exogenous NO. […] Reactivity was then determined following minimal and maximal NOS blockade by administration of a low dose followed by a high dose of L-NAME (3 and 30 mg/kg L-NAME i.v., respectively). […] In these animals additional dose responses to each NO-donor were performed after initial alpha-adrenoceptor antagonism and before L-NAME treatment. Further assessment of the impact of removal of α1-adrenoceptor signaling was made through ganglionic blockade with hexamethonium (30 mg/kg i.v.). Down-stream sympathetic signaling is effectively abolished by completely blocking the ganglia with hexamethonium.

[6] = Vascular reactivity: depressor response to NO-mimetic glyceryl trinitrate (GTN) infusion; assay type: in vivo, rat
Description: as §1, §2
NOS blockade hypertension also results in a hypersensitivity to NO-mimetics such as SNP and GTN. This set of experiments examined whether alpha-adrenoceptor antagonism and/or complete removal of α-signaling could also alter vascular reactivity to exogenous NO. Dose response curves to 30 second infusions of the NO-mimetics sodium nitroprusside (1-30 μg/kg/min SNP i.v.) or glyceryl trinitrate (25-1600 μg/kg/min GTN i.v.) were generated in control animals to determine normal vasodilatory reactivity to exogenous NO. Reactivity was then determined following minimal and maximal NOS blockade by administration of a low dose followed by a high dose of L-NAME (3 and 30 mg/kg L-NAME i.v., respectively). […] In these animals additional dose responses to each NO-donor were performed after initial alpha-adrenoceptor antagonism and before L-NAME treatment. Further assessment of the impact of removal of α1-adrenoceptor signaling was made through ganglionic blockade with hexamethonium (30 mg/kg i.v.). Down-stream sympathetic signaling is effectively abolished by completely blocking the ganglia with hexamethonium. After establishment of a control dose response to SNP, maximal ganglionic blockade was induced and MAP was allowed to reach a steady state. The vascular reactivity to SNP was reassessed after hexamethonium alone and following both a low then high dose of L-NAME (3 and 30 mg/kg L-NAME i.v., respectively).

[7] = treatment alone at maximal blockade (L-NAME 30 mg/kg), GTN 25-1600 μg/kg/min i.v.

## CC(C)NCC(O)c1ccc(O)c(O)c1 (stereo not drawn) [Isopropyl-norepinephrine (INE), Isopropyl-norepinephrine]
[1]
  Change in Depressor Response: ←→
  Δ MAP L-NAME 100 mg/kg (mmHg): −10.52 ± 4.04 mmHg
  Δ MAP Control (mmHg): −9.42 ± 7.38 mmHg

## COc1cc2nc(N3CCN(C(=O)c4ccco4)CC3)nc(N)c2cc1OC [prazosin]
[2]; prazosin 3 mg/kg i.v. or terazosin 2 mg/kg i.v., steady state, conscious rats
  lowering of MAP after alpha-adrenoceptor antagonist: 36.35±13.96 mmHg
[3]
  mortality among patients with chronic congestive heart failure: the same

## COc1cc2nc(N3CCN(C(=O)C4CCCO4)CC3)nc(N)c2cc1OC (stereo not drawn) [Terazosin, terazosin]
[4]
  Overshoot (mmHg) of MAP relative to control response: 45 ± 5.19 mmHg
  Rate of Recovery (mmHg/s): 1.2 ± 0.42 mmHg/s
  Overshoot: Change vs Control: ↑
  Rate of Recovery: Change vs Control: ←→
[2]
  Δ MAP (from initial baseline; mmHg): −28 ± 18.5 mmHg
  MAP after terazosin treatment: 77.37±17.48 mmHg
[2]; losartan + enalaprilat 30 mg/kg i.p. 1:1 vs terazosin alone
  decrease in MAP: 28.09±18.49
[5]
  Change in Vascular Response to SNP: ↑
  depressor response to SNP: enhanced
  depressor response to SNP in the presence of L-NAME: enhanced relative to control
[6]; terazosin combined with moderate NOS blockade (3 mg/kg L-NAME)
  depressor response to GTN: significantly enhanced
[6]; [7]
  depressor response to GTN: only statistically significant at the highest dose of GTN

## CCCOc1ccc2c(c1)[C@@H](c1ccc(OC)cc1OCC(=O)O)[C@H](C(=O)O)[C@H]2c1ccc2c(c1)OCO2 [SB209670]
[4]; co-administration with alpha-adrenoceptor antagonist with or without NOS antagonist
  overshoot of MAP in treatment groups demonstrating overshoot: abolished
[4]
  Overshoot (mmHg) of MAP relative to control response: 0.5 ± 4.98 mmHg
  Rate of Recovery (mmHg/s): 1.4 ± 1.00 mmHg/s
  Overshoot: Change vs Control: ←→
  Rate of Recovery: Change vs Control: ←→
[2]; SB209670 alone
  effect on MAP vs control: did not lower MAP significantly
[2]; SB209670 i.v. bolus then 100 μg/kg/min infusion, alone, control 98.29±6.43
  MAP: 90.41±4.36 mmHg
[2]
  MAP after terazosin treatment: 51.83±4.02 mmHg
[5]; terazosin 2 mg/kg + L-NAME 3 mg/kg + SB209670
  enhanced SNP response with terazosin combined with moderate NOS antagonism: prevented
[5]; terazosin 2 mg/kg i.v. in animals receiving SB209670
  dose response to SNP after terazosin treatment: significantly blunted

## Nc1nc2c(nc(Br)n2[C@@H]2O[C@@H]3COP(=O)(O)O[C@H]3[C@H]2O)c(=O)[nH]1 [8-Br-cGMP, 8-bromo-cyclic-GMP]
[1]
  Change in Depressor Response: ↑↑
  Δ MAP L-NAME 100 mg/kg (mmHg): −26.57 ± 6.76 mmHg
  Δ MAP Control (mmHg): −0.67 ± 2.83 mmHg

## CCCCc1nc(Cl)c(CO)n1Cc1ccc(-c2ccccc2-c2nn[nH]n2)cc1 [losartan]
[5]
  depressor response to SNP: failed to increase the sensitivity

## CCCCC[C@H](O)/C=C/[C@H]1[C@H](O)CC(=O)[C@@H]1CCCCCCC(=O)O [PGE1]
[1]
  Change in Depressor Response: ←→
  Δ MAP L-NAME 100 mg/kg (mmHg): −15.51 ± 9.74 mmHg
  Δ MAP Control (mmHg): −15.21 ± 5.72 mmHg

## C[N+](C)(C)CCCCCC[N+](C)(C)C [Hexamethonium, hexamethonium]
[2]
  Δ MAP (from initial baseline; mmHg): −18 ± 10.0 mmHg
[5]
  Change in Vascular Response to SNP: ↑
  depressor response to SNP: induced an almost identical pattern of hypersensitivity
  depressor response to SNP in the presence of L-NAME: further enhanced

## O=[N+]([O-])O[C@H]1CO[C@H]2[C@@H]1OC[C@H]2O[N+](=O)[O-] [isosorbide dinitrate]
[3]
  mortality among patients with chronic congestive heart failure: reduced significantly

## COC(=O)[C@@H](N)CCCNC(=N)N[N+](=O)[O-] [L-NAME, N^ω-nitro-L-arginine-methyl ester]
[4]
  Overshoot (mmHg) of MAP relative to control response: −1.6 ± 3.68 mmHg
  Rate of Recovery (mmHg/s): 1.2 ± 0.73 mmHg/s
  Overshoot: Change vs Control: ←→
  Rate of Recovery: Change vs Control: ←→
[2]
  Δ MAP (from initial baseline; mmHg): 36 ± 11.1 mmHg
[5]
  Change in Vascular Response to SNP: ↑
  depressor response to SNP: enhanced
[6]; moderate NOS blockade, 3 mg/kg L-NAME alone
  vascular reactivity to GTN: did not produce a significant change
[6]; [7]
  depressor response to GTN: enhanced
